The values below come from publication PMC8397403, “Physiologically Based Pharmacokinetic Modeling of Transporter-Mediated Hepatic Disposition of Imaging Biomarker Gadoxetate in Rats” (Molecular Pharmaceutics, 2021).

One data set relates to plated rat hepatocytes. The data set can be described thus: Pitavastatin uptake in plated rat hepatocytes with and without rifamycin SV (positive control for transporter activity). The data set is classed as in vitro ADME. The note with it: 100 μM rifamycin SV; pitavastatin 0.2 μM; mean (CV 23%). Here is the method:
(§1) Male adult Sprague-Dawley rats (Charles River, Margate, Kent, UK) were housed in groups of two in individually ventilated cages with free access to food (Chow rat and mouse diet) and fresh drinking water. The designated rat housing facility maintained a controlled temperature (20 ± 3 °C), humidity (40–70%), and 12 h light/dark cycle conditions. All animal protocols were approved by the University of Manchester review committee and adhered to the UK Home Office Animals (Scientific Procedures) Act (1986). Rats (250–300 g) were sacrificed using CO2 overdose followed by cervical dislocation in the morning of the study day. The kinetics experiment, as described below, was performed using n = 4 animals. […] Following sample preparation including addition of internal standard (Table S1), gadoxetate and pitavastatin in cell samples, and gadoxetate in media samples, were quantified by liquid chromatography–tandem mass spectrometry (LC–MS/MS). LC–MS/MS quantification was performed using selective reaction monitoring (SRM) against calibration standards; only standards within 30% of nominal concentration were included. The protein content of plated rat hepatocytes was measured using the Pierce BCA Protein Assay Kit (Thermo Fisher Scientific, Paisley, UK). […]

Experiment in data set [1]: as above
The class given is in vitro ADME. The note with it: male, Sprague-Dawley, rat, plated primary rat hepatocytes; pitavastatin 0.2 μM, absence of rifamycin SV, 0.5-2 min; mean (CV 24%); read-out: Unbound intrinsic uptake clearance (CLint,u). As to the method: as §1

For data set [2], the system named is active uptake transport of gadoxetate into the liver. The data set can be described thus: Simultaneous PBPK fitting of gadoxetate DCE-MRI data in control and rifampicin phases. The data set is classed as in vivo, rat. As to conditions: Rattus norvegicus. Here is the method:
DCE–MRI data generated using the 3D Fast Low Angle Shot RF-spoiled gradient echo sequence (FLASH) protocol in male Wistar-Han rats were used for assessing the PBPK IVIVE performances and for obtaining some of the PBPK parameters within the bottom-up and top-down approaches, respectively. The DCE–MRI data were acquired in a multicenter study at two magnetic field strengths, 4.7 and 7 T. Gadoxetate was administered at a dose of 25 μmol/kg, either alone or 1 h after IV administration of 10 mg/kg rifampicin. When gadoxetate was administered alone (control arm), 43 profiles of blood, spleen, and liver measured at a field strength of 4.7 T and 52 profiles of blood, spleen, and liver measured at 7 T were available. In the case of gadoxetate administered with rifampicin, 7 blood, spleen, and liver profiles at a field strength equal to 4.7 T and 6 at 7 T were available. All gadoxetate DCE–MRI data and study protocols are detailed in a companion paper (Hines et al. in submission).
The DCE–MRI data used in this study were reported as ΔR1. Therefore, the relationship between the compartmental concentrations represented by the PBPK model state variables and the ΔR1 measurements for the blood, liver, and spleen needed to be described. The linear relationship in eq 4 is not valid for ΔR1 of the liver, ΔR1,liv, because intracellular and extracellular tissue compartments have different relaxivities. To derive ΔR1,liv, a volume fraction-weighted mean of the contributions of the gadoxetate concentration in all the compartments used to model the liver was performed.[40] In the spleen, the entire distribution space was supposed to have the same relaxivity as blood and, therefore, eq 4 can be applied directly to derive spleen concentrations from ΔR1,spl. Concerning the blood, the blood value for r1 in Table 1 allows ΔR1,b to be directly related to the blood concentration. The relations between ΔR1,liv, ΔR1,spl, and ΔR1,b and the concentrations of the PBPK compartments are shown in eq 7. [drawing 7] 7 cspl,extr is the extracellular concentration in the spleen and Vspl,extr is the extracellular volume of the spleen and Vliv and Vspl are the whole volumes of liver and spleen. r1,liv,extr and r1,spl,extr were assumed to be equal to r1,b, as described in Hines et al.
In fact, each of the data are acquired during a time interval Δt, which was 57 s in the current dataset. To account for this characteristic when performing the parameter estimation, the residuals were calculated as the difference of the observed ΔR1 corresponding to a given time interval minus the mean of the simulated PBPK ΔR1 within the same interval, as explained in the Supporting Information, Section 4.
The extent of interaction with rifampicin was estimated by performing a simultaneous fitting of gadoxetate ΔR1 in the control and inhibitory phase. In this analysis, PS was considered the same for both phases, whereas the other parameters were separately estimated in the absence (CLactive and CLbiliary) and in the presence of rifampicin (CLactive,inh and CLbiliary,inh). CLbiliary,inh was considered to account for possible inhibition of Mrp2 in rat by rifampicin, as previously reported.[45] To understand the impact of the inclusion of the liver-imaging data on the parameter optimization, the simultaneous estimation was also performed considering only the blood data.
All the PBPK analyses were performed in MATLAB R2020a,[50] the ordinary differential equations were solved with the function “ode15s”, while the parameter optimization was performed with the function “lsqnonlin”. The uncertainty of the parameters estimate was evaluated with the case-bootstrap,[51] using 1000 samples.

Each structure is given as a SMILES string. Where two headings read alike, the source gives them in different places.

As to `CO[C@H]1/C=C/O[C@@]2(C)Oc3c(C)c(O)c4c(O)c(cc(O)c4c3C2=O)NC(=O)/C(C)=C\C=C\[C@H](C)[C@H](O)[C@@H](C)[C@@H](O)[C@@H](C)[C@H](OC(C)=O)[C@@H]1C` [rifamycin SV], the “reduction of the uptake of pitavastatin” value in the data set on plated rat hepatocytes was determined as 54%.
In the case of `O=C(O)C[C@H](O)C[C@H](O)/C=C/c1c(C2CC2)nc2ccccc2c1-c1ccc(F)cc1` [pitavastatin], the hepatocyte CLint at 0.2 μM in data set [1] came to 95.7 µL/min/1e6 cells.
As for `CO[C@H]1/C=C/O[C@@]2(C)Oc3c(C)c(O)c4c(O)c(c(/C=N/N5CCN(C)CC5)c(O)c4c3C2=O)NC(=O)/C(C)=C\C=C\[C@H](C)[C@H](O)[C@@H](C)[C@@H](O)[C@@H](C)[C@H](OC(C)=O)[C@@H]1C` [rifampicin], the inhibition (in general, the drop in the measured response relative to a control, in per cent) at 10 mg/kg in data set [2] (iv, rifampicin i.v. 10 mg/kg, fit with blood, spleen and liver data, read-out: inhibition of gadoxetate CLactive (active uptake into the liver)) is 96%; in data set [2] (rifampicin 10 mg/kg, only blood ΔR1 profiles (without liver data), read-out: inhibition of gadoxetate CLactive, blood ΔR1 only), 84%.
